Data as given in patent US6737383B1, “Herbicidal oxadiazolidines” (priority 1999, dated 2004).

Assays:
wild oat = test: Test B pre/postemergence wild oat; assay type: in vivo, Avena fatua
Outline: (§1)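 Herbicidal effect was estimated by eye on a ten-point control scale after plants spent twelve to sixteen days in a greenhouse following soil or foliar treatment. Foliar sprays targeted plants at one to four leaves; all doses were formulated in a non-phytotoxic solvent with surfactant.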

sugar beet = test: Test B pre/postemergence sugar beet; assay type: in vivo, Beta vulgaris
Outline: as §1

soybean = test: Test B pre/postemergence soybean; assay type: in vivo, Glycine max
Outline: as §1

surinam grass = test: Test B pre/postemergence surinam grass; assay type: in vivo, Brachiaria decumbens
Outline: as §1

bedstraw = test: Test B pre/postemergence bedstraw; assay type: in vivo, Galium aparine
Outline: as §1

rape = test: Test B pre/postemergence rape; assay type: in vivo, Brassica napus
Outline: as §1

crabgrass = test: Test B pre/postemergence crabgrass; assay type: in vivo, Digitaria sanguinalis
Outline: as §1

corn = test: Test B pre/postemergence corn; assay type: in vivo, Zea mays
Outline: as §1

pigweed = test: Test B pre/postemergence pigweed; assay type: in vivo, Amaranthus retroflexus
Outline: as §1

giant foxtail = test: Test B pre/postemergence giant foxtail; assay type: in vivo, Setaria faberii
Outline: as §1

purple nutsedge = test: Test B pre/postemergence purple nutsedge; assay type: in vivo, Cyperus rotundus
Outline: as §1

morningglory = test: Test B pre/postemergence morningglory; assay type: in vivo, Ipomoea hederacea
Outline: as §1

wheat = test: Test B pre/postemergence wheat; assay type: in vivo, Triticum aestivum
Outline: as §1

velvetleaf = test: Test B pre/postemergence velvetleaf; assay type: in vivo, Abutilon theophrasti
Outline: as §1

cocklebur = test: Test B pre/postemergence cocklebur; assay type: in vivo, Xanthium strumarium
Outline: as §1

blackgrass = test: Test B pre/postemergence blackgrass; assay type: in vivo, Alopecurus myosuroides
Outline: as §1

[1] = Postemergence, Rate 62 g/ha, scale of 0 to 10, 0 is no effect, 10 is complete control
[2] = Postemergence, Rate 125 g/ha, scale 0 to 10, 0 is no effect, 10 is complete control
[3] = Postemergence, Rate 500 g/ha, scale 0 to 10, 0 is no effect, 10 is complete control
[4] = Preemergence, Rate 62 g/ha, scale 0 to 10 (0 no effect, 10 complete control)
[5] = Preemergence, Rate 125 g/ha, scale 0 to 10, 0 is no effect, 10 is complete control
[6] = Preemergence, Rate 500 g/ha, scale of 0 to 10 where 0 is no effect and 10 is complete control
[7] = Rate 250 g/ha, Postemergence, scale of 0 to 10 where 0 is no effect and 10 is complete control

`CC(Cl)=CCn1c(=O)on(C(=O)N(c2ccc(Cl)cc2)C(C)C)c1=O` [Compound 544] was tested, and the “Wild oats plant response rating” value (wild oat; [1]) was 0, the “Wild oats plant response rating” value (wild oat; [2]) was 0 and the “Plant response rating, Wild oats” value (wild oat; [3]) was 2. The “Wild oats plant response rating” value (wild oat; [4]) was 0, the “Wild oats plant response rating” value (wild oat; [5]) was 0 and the “Wild oats plant response rating (0 to 10 scale)” value (wild oat; Preemergence, Rate 250 g/ha) was 2. The “Wild oats plant response rating” value (wild oat; [6]) was 4, the “Plant response rating, Wild oats” value (wild oat; [7]) was 0 and the “Sugarbeets plant response rating” value (sugar beet; [1]) was 0. The “Sugarbeets plant response rating” value (sugar beet; [2]) was 0, the “Plant response rating, Sugarbeets” value (sugar beet; [3]) was 3 and the “Sugarbeets plant response rating” value (sugar beet; [4]) was 0. For the same molecule, the “Sugarbeets plant response rating” value (sugar beet; [5]) was 0, the “Sugarbeets plant response rating (0 to 10 scale)” value (sugar beet; Preemergence, Rate 250 g/ha) was 0 and the “Sugarbeets plant response rating” value (sugar beet; [6]) was 4. For the same molecule, the “Plant response rating, Sugarbeets” value (sugar beet; [7]) was 1, the “Soybean plant response rating” value (soybean; [1]) was 0 and the “Soybean plant response rating” value (soybean; [2]) was 2. The “Plant response rating, Soybean” value (soybean; [3]) was 2, the “Soybean plant response rating” value (soybean; [4]) was 0 and the “Soybean plant response rating” value (soybean; [5]) was 0. For the same molecule, the “Soybean plant response rating (0 to 10 scale)” value (soybean; Preemergence, Rate 250 g/ha) was 0, the “Soybean plant response rating” value (soybean; [6]) was 0 and the “Plant response rating, Soybean” value (soybean; [7]) was 0. For the same molecule, the “B. signalgrass plant response rating” value (surinam grass; [1]) was 0, the “B. signalgrass plant response rating” value (surinam grass; [2]) was 0 and the “Plant response rating, B. signalgrass” value (surinam grass; [3]) was 3. For the same molecule, the “B. signalgrass plant response rating” value (surinam grass; [4]) was 3, the “B. signalgrass plant response rating” value (surinam grass; [5]) was 3 and the “B. signalgrass plant response rating (0 to 10 scale, 0 is no effect, 10 is complete control)” value (surinam grass; Preemergence, Rate 250 g/ha) was 6. The “B. signalgrass plant response rating” value (surinam grass; [6]) was 8, the “Plant response rating, B. signalgrass” value (surinam grass; [7]) was 0 and the “Bedstraw plant response rating” value (bedstraw; [1]) was 0. The “Bedstraw plant response rating” value (bedstraw; [2]) was 2, the “Plant response rating, Bedstraw” value (bedstraw; [3]) was 3 and the “Bedstraw plant response rating” value (bedstraw; [4]) was 0. For the same molecule, the “Bedstraw plant response rating” value (bedstraw; [5]) was 2, the “Bedstraw plant response rating (0 to 10 scale)” value (bedstraw; Preemergence, Rate 250 g/ha) was 7 and the “Bedstraw plant response rating” value (bedstraw; [6]) was 9. For the same molecule, the “Plant response rating, Bedstraw” value (bedstraw; [7]) was 2, the “Rape plant response rating” value (rape; [1]) was 0 and the “Rape plant response rating” value (rape; [2]) was 2. The “Plant response rating, Rape” value (rape; [3]) was 3, the “Rape plant response rating” value (rape; [4]) was 0 and the “Rape plant response rating” value (rape; [5]) was 0. The “Rape plant response rating (0 to 10 scale)” value (rape; Preemergence, Rate 250 g/ha) was 3, the “Rape plant response rating” value (rape; [6]) was 6 and the “Plant response rating, Rape” value (rape; [7]) was 2. The “Crabgrass plant response rating” value (crabgrass; [1]) was 0, the “Crabgrass plant response rating” value (crabgrass; [2]) was 8 and the “Plant response rating, Crabgrass” value (crabgrass; [3]) was 9. For the same molecule, the “Crabgrass plant response rating” value (crabgrass; [4]) was 9, the “Crabgrass plant response rating” value (crabgrass; [5]) was 9 and the “Crabgrass plant response rating (0 to 10 scale)” value (crabgrass; Preemergence, Rate 250 g/ha) was 10. The “Crabgrass plant response rating” value (crabgrass; [6]) was 10, the “Plant response rating, Crabgrass” value (crabgrass; [7]) was 8 and the “Corn plant response rating” value (corn; [1]) was 0. For the same molecule, the “Corn plant response rating” value (corn; [2]) was 0, the “Plant response rating, Corn” value (corn; [3]) was 0 and the “Corn plant response rating” value (corn; [4]) was 0. The “Corn plant response rating” value (corn; [5]) was 0, the “Corn plant response rating (0 to 10 scale)” value (corn; Preemergence, Rate 250 g/ha) was 0 and the “Corn plant response rating” value (corn; [6]) was 0. For the same molecule, the “Plant response rating, Corn” value (corn; [7]) was 0, the “Redroot pigweed plant response rating” value (pigweed; [1]) was 0 and the “Redroot pigweed plant response rating” value (pigweed; [2]) was 0. For the same molecule, the “Plant response rating, Redroot pigweed” value (pigweed; [3]) was 2, the “Redroot pigweed plant response rating” value (pigweed; [4]) was 3 and the “Redroot pigweed plant response rating” value (pigweed; [5]) was 3. The “Redroot pigweed plant response rating (0 to 10 scale)” value (pigweed; Preemergence, Rate 250 g/ha) was 3, the “Redroot pigweed plant response rating” value (pigweed; [6]) was 10 and the “Plant response rating, Redroot pigweed” value (pigweed; [7]) was 0. For the same molecule, the “Giant foxtail plant response rating” value (giant foxtail; [1]) was 0, the “Giant foxtail plant response rating” value (giant foxtail; [2]) was 0 and the “Giant foxtail plant response rating” value (giant foxtail; [4]) was 9. For the same molecule, the “Giant foxtail plant response rating” value (giant foxtail; [5]) was 10, the “Giant foxtail plant response rating (0 to 10 scale)” value (giant foxtail; Preemergence, Rate 250 g/ha) was 10 and the “Giant foxtail plant response rating” value (giant foxtail; [6]) was 10. For the same molecule, the “Plant response rating, Giant foxtail” value (giant foxtail; [7]) was 6, the “Nutsedge plant response rating” value (purple nutsedge; [1]) was 0 and the “Nutsedge plant response rating” value (purple nutsedge; [2]) was 0. The “Plant response rating, Nutsedge” value (purple nutsedge; [3]) was 0, the “Nutsedge plant response rating” value (purple nutsedge; [4]) was 0 and the “Nutsedge plant response rating” value (purple nutsedge; [5]) was 0. For the same molecule, the “Nutsedge plant response rating (0 to 10 scale)” value (purple nutsedge; Preemergence, Rate 250 g/ha) was 0, the “Nutsedge plant response rating” value (purple nutsedge; [6]) was 0 and the “Plant response rating, Nutsedge” value (purple nutsedge; [7]) was 0. The “Morningglory plant response rating” value (morningglory; [1]) was 3, the “Morningglory plant response rating” value (morningglory; [2]) was 4 and the “Plant response rating, Morningglory” value (morningglory; [3]) was 10. The “Morningglory plant response rating” value (morningglory; [4]) was 0, the “Morningglory plant response rating” value (morningglory; [5]) was 0 and the “Morningglory plant response rating (0 to 10 scale)” value (morningglory; Preemergence, Rate 250 g/ha) was 0. The “Morningglory plant response rating” value (morningglory; [6]) was 0, the “Plant response rating, Morningglory” value (morningglory; [7]) was 10 and the “Wheat plant response rating” value (wheat; [1]) was 0. For the same molecule, the “Wheat plant response rating” value (wheat; [2]) was 0, the “Plant response rating, Wheat” value (wheat; [3]) was 0 and the “Wheat plant response rating” value (wheat; [4]) was 0. For the same molecule, the “Wheat plant response rating” value (wheat; [5]) was 0, the “Wheat plant response rating (0 to 10 scale)” value (wheat; Preemergence, Rate 250 g/ha) was 0 and the “Wheat plant response rating” value (wheat; [6]) was 0. For the same molecule, the “Plant response rating, Wheat” value (wheat; [7]) was 0, the “Velvetleaf plant response rating” value (velvetleaf; [1]) was 0 and the “Velvetleaf plant response rating” value (velvetleaf; [2]) was 0. For the same molecule, the “Plant response rating, Velvetleaf” value (velvetleaf; [3]) was 0, the “Velvetleaf plant response rating” value (velvetleaf; [4]) was 0 and the “Velvetleaf plant response rating” value (velvetleaf; [5]) was 0. For the same molecule, the “Velvetleaf plant response rating (0 to 10 scale)” value (velvetleaf; Preemergence, Rate 250 g/ha) was 0, the “Velvetleaf plant response rating” value (velvetleaf; [6]) was 0 and the “Plant response rating, Velvetleaf” value (velvetleaf; [7]) was 0. The “Cocklebur plant response rating” value (cocklebur; [1]) was 3, the “Cocklebur plant response rating” value (cocklebur; [2]) was 3 and the “Plant response rating, Cocklebur” value (cocklebur; [3]) was 3. The “Cocklebur plant response rating” value (cocklebur; [4]) was 0, the “Cocklebur plant response rating (0 to 10 scale)” value (cocklebur; Preemergence, Rate 250 g/ha) was 0 and the “Cocklebur plant response rating” value (cocklebur; [6]) was 0. For the same molecule, the “Plant response rating, Cocklebur” value (cocklebur; [7]) was 3, the “Blackgrass plant response rating” value (blackgrass; [1]) was 0 and the “Blackgrass plant response rating” value (blackgrass; [2]) was 0. The “Plant response rating, Blackgrass” value (blackgrass; [3]) was 3, the “Blackgrass plant response rating” value (blackgrass; [4]) was 0 and the “Blackgrass plant response rating” value (blackgrass; [5]) was 0. The “Blackgrass plant response rating (0 to 10 scale)” value (blackgrass; Preemergence, Rate 250 g/ha) was 2, the “Blackgrass plant response rating” value (blackgrass; [6]) was 6 and the “Plant response rating, Blackgrass” value (blackgrass; [7]) was 0.
